This is an account of results in patent US4954491A, “Method of treatment using 18-cyanoprogesterone derivatives” (Merrell Dow Pharmaceuticals Inc., priority 1989, dated 1990).

Assay [1] deals with enzymes in the synthesis of aldosterone. The experiment in a line: inhibition of enzymes in the synthesis of aldosterone (rat adrenal capsule/glomerulosa homogenates, [3H]-DOC substrate). Type of assay: biochemical, Sprague-Dawley rats. The note with it: Conc 10 μM, 1 μM [3H]-DOC, 10-minute assay, 25° C., pH 7.4; for f moles/min/mg: buffer control 246. How it is done:
Young male Sprague-Dawley rats were maintained on a sodium-deficient diet for about two weeks prior to use. From these animals, adrenal capsule/glomerulose homogenates were prepared (6 mg/ml) in pH 7.4 assay buffer [MgCl2 8.5 mM, CaCl2 2.7 mM, KCl 3.13 mM, NaCl 7.591 mM, TRIS 50 mM and 0.1% triethylamine]and centrifuged 500xg for 10 minutes.
Assays were conducted in 35 ml glass tubes maintained at 25° C. in a Dubnoff shaker with 95% O2 /5% CO2. The tubes contained the following material: 100 μl of an NADPH^+ generating system, 300 μl of adrenal capsular/glomerulosa cytosol, and 50 μl of test compound or buffer (control). After initial preincubation intervals of 20 minutes, the 10-minute assay was started by the addition of 50 μl of tritium-labelled substrate, i.e., 1 μM [^3 H]-DOC. Reactions were quenched by the addition of 5 ml of ethyl acetate and non-radiolabelled steroids were also added. The samples were extracted twice with 5 ml of ethyl acetate and the solvent evaporated under nitrogen at 30°-40° C.
Residues were redissolved in methanol:water (40:60) with 0.1% triethylamine and high performance liquid chromatography was used to separate products on a Cl8 reverse phase (5 μ ODS-Hypersil) column (4.6×250 mm, Shannon) with a 1 ml/min flow rate using an MeOH:H2 O gradient (solvent A 10/90:solvent B 90/10).
Unchanged substrate and products formed were monitored by UV absorbance at 246 nm and the amount of steroid compound present was quantified by [^3 H]radioactivity. Using this procedure, the following results were observed: […]

Assay [2] has as its system rabbits. The note with it: Auel et al.; cited from earlier work.
Assay [3] relates to rabbits. The note with it: Auel et al.; cited from earlier work. The source holds these as a separate data set.

The % Inhibition is the drop in the measured response relative to a control, in per cent. Lower therefore signals little suppression. For `CC(=O)[C@H]1CC[C@H]2[C@@H]3CCC4=CC(=O)CC[C@]4(C)[C@H]3[C@@H](O)C[C@]12CC#N` [11β-Hydroxy-3,20-dioxopregn-4-ene-18-carbonitrile], in assay [1], the “% Inhibition” value was found to be 33.3% and the f moles/min/mg was 164 f moles/min/mg.
`CC(=O)[C@H]1CC[C@H]2[C@@H]3CCC4=CC(=O)CC[C@]4(C)[C@H]3CC[C@]12CC#N` [3,20-Dioxopregn-4-ene-18-carbonitrile]: the “pharmacological activity in the anti-Clauberg test” value with rabbits [2] was “inactive”. Also, in assay [1], the “% Inhibition” value is 52.5% and the f moles/min/mg is on record as 117 f moles/min/mg. Also, the “pharmacological activity in the Clauberg test” value with rabbits [3] was “inactive”.
